From patent US20250163057A1, “DCN-1 MODULATING COMPOUNDS AND METHODS OF USE THEREOF” (Cellarity, Inc., priority 2023, published 2025) come the findings set out here.

Molecules are shown by their SMILES. Read-outs that look alike come from different tables or passages of the source.

Assay [1] concerns the target DCN1 (DCUND1) protein PONY domain (Homo sapiens (Human), UniProt Q96GG9). Description: TR-FRET assay, DCN1 binding with FAM-labeled probe. The method in brief:
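Tb-DCN1 PONY domain (E. coli, biotin/streptavidin-Tb); FAM-labelled non-covalent inhibitor probe; TritonX buffer, 200 mM NaCl; 5 nM DCN1 + 20 nM probe or 0.31 nM DCN1 + 900 nM total probe; 0.1% DMSO; TR-FRET read 1, 5, 24 hrs.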

In assay [2] the test system is Cullin-3 (CUL3) neddylation. Description: AlphaLISA assay for Cullin-3 (CUL3) neddylation in TF 1 cells. The note with it: 3 hours treatment. In kind it is cell-based. The method in brief: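 Neddylated CUL3 was quantified by AlphaLISA in lysates of TF 1 cells exposed for 3 h to test compound in IMDM without supplements. Percent inhibition set between vehicle and 1 μM DI-1548 positive control; IC50 derived by Hill-equation fitting of dose-response curves.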
In general terms: Bead proximity is the source of the signal in Alpha formats.

Setting [3] is: 24 hr after treatment with compound, read-out: TR FRET IC50 24 hr.
Where [4] appears, read: TR FRET IC50 1 hr (nM), 1 hr after treatment with compound.
[5] abbreviates: read-out: TR FRET IC50 1 hr, 1 hr after treatment with compound.

DCN1 (DCUND1) protein PONY domain, sequence (Q96GG9 60-248): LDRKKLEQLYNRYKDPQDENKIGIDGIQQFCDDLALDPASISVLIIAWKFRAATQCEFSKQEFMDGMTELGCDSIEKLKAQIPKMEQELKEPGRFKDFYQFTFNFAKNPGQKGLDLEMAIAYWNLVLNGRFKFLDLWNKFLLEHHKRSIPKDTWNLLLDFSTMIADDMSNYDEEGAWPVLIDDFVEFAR

As usually defined, the IC50 is the point on the concentration scale where inhibition reaches its midpoint. Regarding `CCN1C(=O)[C@H](NC(=O)c2cccc(C(F)(F)F)c2)[C@@H](c2ccc(F)cc2)c2c(CN3C(=O)CC[C@H]3C#N)nn(-c3ccccc3)c21` [Compound I-596, N-((4S,5R)-3-(((S)-2-cyano-5-oxopyrrolidin-1-yl)methyl)-7-ethyl-4-(4-fluorophenyl)-6-oxo-1-phenyl-4,5,6,7-tetrahydro-1H-pyrazolo[3,4-b]pyridin-5-yl)-3-(trifluoromethyl)benzamide], the IC50 in assay [1] (setting [3]) is 1000 to 3000 nM; in assay [1] (setting [4]), 1000 to 3000 nM; in assay [2] (Homo sapiens, TF-1, 3 h) it was more than 1 µM.
Regarding `CCN1C(=O)[C@@H](NC(=O)c2cccc(C(F)(F)F)c2)[C@@H](c2ccccn2)c2c(C(=O)N3CCC[C@H]3C#N)nn(-c3ccccc3)c21` (mixture of isomers) [Compound I-413], the IC50 in assay [1] (setting [3]) was not above 200 nM; in assay [1] (setting [4]), 1000 to 3000 nM; in assay [2] (Homo sapiens, TF-1, 3 h), not above 0.1 µM.
For `CCN1C(=O)[C@@H](NC(=O)C(C2CC2)C2CC2)[C@@H](C2CC2)c2c(C(=O)N3[C@H](C#N)C[C@H]4C[C@H]43)nn(C3CCOCC3)c21` [Compound I-699], in that order: 1000 to 3000 nM, 1000 to 3000 nM and more than 1 µM.
For `CCN1C(=O)[C@@H](NC(=O)c2cccc(C(F)(F)F)c2)[C@H](c2ccc(F)cc2)c2c(CN(C)C(=O)CC#N)nn(-c3ccccc3)c21` [Compound I-403], in that order: 200 to 1000 nM, 200 to 1000 nM and 0.1 to 1 µM.
For `CCN1C(=O)[C@@H](NC(=O)c2cnc(C)cc2Cl)[C@@H](C2CC2)c2c(C(=O)N3[C@H](C#N)C[C@H]4C[C@H]43)nn(C3CCOCC3)c21` [Compound I-506], in that order: 1000 to 3000 nM, 1000 to 3000 nM and more than 1 µM.
On to `C=C(CN1CC2CC(C1)O2)C(=O)NCc1nn(-c2ccccc2)c2c1[C@H](c1ccc(F)cc1)[C@H](NC(=O)c1cccc(C(F)(F)F)c1)C(=O)N2CC` [Compound I-56], for which the IC50 in assay [1] (setting [3]) is not above 200 nM; in assay [1] (setting [5]), not above 200 nM; in assay [2] (Homo sapiens, TF-1, 3 h), not above 0.1 µM.
With `CCN1C(=O)[C@@H](NC(=O)c2cccc(C(F)(F)F)c2)[C@@H](c2ccc(F)cc2)c2c(C(=O)N3CCC[C@H]3C#N)nn(-c3cccc(OCCCN4CC5(COC5)C4)c3)c21` (stereo in doubt) [Compound I-615], the IC50 is 200 to 1000 nM in assay [1] (setting [3]); 1000 to 3000 nM in assay [1] (setting [4]); more than 1 µM in assay [2] (Homo sapiens, TF-1, 3 h).
For the compound `CCN1C(=O)[C@@H](NC(=O)c2cccc(C(F)(F)F)c2)[C@@H](C2CC2)c2c(C(=O)N3CCS(=O)(=O)C[C@@H]3C#N)nn(-c3ccccc3)c21` [Compound I-438, N-((4S,5S)-3-((S)-3-cyano-1,1-dioxidothiomorpholine-4-carbonyl)-4-cyclopropyl-7-ethyl-6-oxo-1-phenyl-4,5,6,7-tetrahydro-1H-pyrazolo[3,4-b]pyridin-5-yl)-3-(trifluoromethyl)benzamide], the IC50 was not above 200 nM in assay [1] (setting [3]); not above 200 nM in assay [1] (setting [5]); not above 0.1 µM in assay [2] (Homo sapiens, TF-1, 3 h).
As for `CCN1C(=O)[C@@H](NC(=O)[C@@H]2CCN(Cc3ccccc3)C2)[C@@H](C2CC2)c2c(C(=O)N3[C@H](C#N)C[C@H]4C[C@H]43)nn(C3CCOCC3)c21` [Compound I-634], the IC50 in assay [1] (setting [3]) is 1000 to 3000 nM; in assay [1] (setting [4]) it was 1000 to 3000 nM; in assay [2] (Homo sapiens, TF-1, 3 h), more than 1 µM.
For the compound `CCN1C(=O)[C@H](NC(=O)c2cccc(C(F)(F)F)c2)[C@H](c2ccc(F)cc2)c2c(C(=O)N3CCC[C@H]3C#N)nn(-c3cccc(OCCN4CCN(C5COC5)CC4)c3)c21` [Compound I-648], the IC50 is 1000 to 3000 nM in assay [1] (setting [3]); 1000 to 3000 nM in assay [1] (setting [4]); more than 1 µM in assay [2] (Homo sapiens, TF-1, 3 h).
With `CCN1C(=O)[C@H](NC(=O)c2cccc(C(F)(F)F)c2)[C@H](c2ccc(F)cc2)c2c(C(=O)N3CCC[C@H]3C#N)nn(-c3cccc(OCCCN4CCOCC4)c3)c21` [Compound I-544], the IC50 was 1000 to 3000 nM in assay [1] (setting [3]); 1000 to 3000 nM in assay [1] (setting [4]); more than 1 µM in assay [2] (Homo sapiens, TF-1, 3 h).
Regarding `CCN1C(=O)[C@@H](NC(=O)c2cccc(C(F)(F)F)c2)[C@@H](C2CC2)c2c(C(=O)N3[C@H](C#N)C[C@H]4C[C@H]43)nn(C(C)(C)C)c21` (mixture of isomers) [Compound I-517], the IC50 in assay [1] (setting [3]) was 200 to 1000 nM; in assay [1] (setting [4]), 1000 to 3000 nM; in assay [2] (Homo sapiens, TF-1, 3 h) it was 0.1 to 1 µM.
As to `CCN1C(=O)[C@@H](NC(=O)c2cccc(C(F)(F)F)c2)[C@@H](c2ccc(F)cc2)c2c(C(=O)N3CC[C@H](NC)[C@H]3C#N)nn(C3CCOCC3)c21` (mixture of isomers) [Compound I-693, N-((4S,5S)-3-(trans-(2S,3S)-2-cyano-3-(methylamino)pyrrolidine-1-carbonyl)-7-ethyl-4-(4-fluorophenyl)-6-oxo-1-(tetrahydro-2H-pyran-4-yl)-4,5,6,7-tetrahydro-1H-pyrazolo[3,4-b]pyridin-5-yl)-3-(trifluoromethyl)benzamide], the IC50 in assay [1] (setting [3]) was not above 200 nM; in assay [1] (setting [5]), not above 200 nM; in assay [2] (Homo sapiens, TF-1, 3 h), not above 0.1 µM.
Consider `CCN1C(=O)[C@@H](NC(=O)c2cccc(C(F)(F)F)c2)[C@@H](C2CC2)c2c(C(=O)N3CCC[C@H]3C#N)nn(C3CC3)c21` [Compound I-454], for which the IC50 was 200 to 1000 nM in assay [1] (setting [3]); 1000 to 3000 nM in assay [1] (setting [4]); not above 0.1 µM in assay [2] (Homo sapiens, TF-1, 3 h).
Consider `CCN1C(=O)[C@@H](NC(=O)c2cccc(C(F)(F)F)c2)[C@@H](C2CC2)c2c(C(=O)N(CC#N)C3CC3)nn(C3CCOCC3)c21` [Compound I-682], for which the IC50 is not above 200 nM in assay [1] (setting [3]); 200 to 1000 nM in assay [1] (setting [4]); not above 0.1 µM in assay [2] (Homo sapiens, TF-1, 3 h).
For `CCN1C(=O)[C@H](NC(=O)c2cccc(C(F)(F)F)c2)[C@H](c2ccc(F)cc2)c2c(C(=O)N(CC#N)C3CC3)nn(C3CCOCC3)c21` [Compound I-414], in that order: 1000 to 3000 nM, 1000 to 3000 nM and more than 1 µM.
On to `CCN1C(=O)[C@@H](NC(=O)c2cccn(C3CC3)c2=O)[C@@H](C2CC2)c2c(C(=O)N3[C@H](C#N)C[C@H]4C[C@H]43)nn(C3CCOCC3)c21` [Compound I-624], for which the IC50 in assay [1] (setting [3]) was 200 to 1000 nM; in assay [1] (setting [4]), 200 to 1000 nM; in assay [2], not above 0.1 µM.
Consider `CCCn1nc(C(=O)N(C)C(C)C#N)c2c1N(CC)C(=O)[C@@H](NC(=O)c1cccc(C(F)(F)F)c1)[C@H]2C1CC1` (stereo partly drawn) [Compound I-569], for which the IC50 in assay [1] (setting [3]) was not above 200 nM; in assay [1] (setting [4]), 200 to 1000 nM; in assay [2] (Homo sapiens, TF-1, 3 h) it was not above 0.1 µM.
Turning to `CCN1C(=O)[C@@H](NC(=O)c2cccc3ccoc23)[C@@H](C2CC2)c2c(C(=O)N3[C@H](C#N)C[C@H]4C[C@H]43)nn(C3CCOCC3)c21` [Compound I-707], the concentration for half-maximal inhibition (IC50) was not above 200 nM in assay [1] (setting [3]), not above 200 nM in assay [1] (setting [5]) and not above 0.1 µM in assay [2] (Homo sapiens).
Consider `CCN1C(=O)[C@@H](NC(=O)c2cccc(C(F)(F)F)c2)[C@@H](C2CCCC2)c2c(C(=O)N(C)[C@H](C)C#N)nn(C3CCOCC3)c21` [Compound I-524], for which the IC50 in assay [1] (setting [3]) was not above 200 nM; in assay [1] (setting [4]), 200 to 1000 nM; in assay [2] (Homo sapiens, TF-1, 3 h) it was not above 0.1 µM.
For `CCN1C(=O)[C@@H](NC(=O)c2cccc(C(F)(F)F)c2)[C@@H](c2ccc(F)cc2)c2c(C(=O)N3[C@H](C#N)C[C@@H]4C[C@@H]43)nn(-c3ccccc3)c21` [Compound I-450], in that order: 1000 to 3000 nM, 1000 to 3000 nM and 0.1 to 1 µM.
In the same order, the values of `CCN1C(=O)[C@@H](NC(=O)c2cccc(C(F)(F)F)c2)[C@@H](C2CC2)c2c(C(=O)N3[C@H](C#N)CC[C@@H]3C)nn(C3CCOCC3)c21` [Compound I-700] are 200 to 1000 nM, 1000 to 3000 nM and 0.1 to 1 µM.
In the same order, the values of `CCN1C(=O)[C@@H](NC(=O)c2cccc(C(F)(F)F)c2)[C@@H](C2CC2)c2c(C(=O)N3CCC=C3C#N)nn(C3CCOCC3)c21` [Compound I-437] are not above 200 nM, 1000 to 3000 nM and more than 1 µM.
`CCN1C(=O)[C@@H](NC(=O)c2c(Cl)ccc(OC)c2F)[C@@H](C2CC2)c2c(C(=O)N3[C@H](C#N)C[C@H]4C[C@H]43)nn(C3CCOCC3)c21` [Compound I-697]: the IC50 is 1000 to 3000 nM in assay [1] (setting [3]); 1000 to 3000 nM in assay [1] (setting [4]); more than 1 µM in assay [2] (Homo sapiens, TF-1, 3 h).
On to `CCN1C(=O)[C@@H](NC(=O)c2cccc(C(F)(F)F)c2)[C@@H](c2ccc(F)nc2)c2c(C(=O)N3CCC[C@H]3C#N)nn(C3CC3)c21` (mixture of isomers) [Compound I-585], for which the IC50 in assay [1] (setting [3]) is not above 200 nM; in assay [1] (setting [4]), 1000 to 3000 nM; in assay [2] (Homo sapiens, TF-1, 3 h) it was 0.1 to 1 µM.
For `CCN1C(=O)[C@@](CO)(NC(=O)c2cccc(C(F)(F)F)c2)[C@@H](c2ccc(F)cc2)c2c([C@@H](C)NC#N)nn(-c3ccccc3)c21` [Compound I-608], the IC50 was not above 200 nM in assay [1] (setting [3]); 1000 to 3000 nM in assay [1] (setting [4]); more than 1 µM in assay [2] (Homo sapiens, TF-1, 3 h).
In the same order, the values of `CCN1C(=O)[C@H](NC(=O)c2cccc(C(F)(F)F)c2)[C@H](c2ccc(F)cc2)c2c(C(=O)N3[C@H](C#N)C[C@H]4C[C@H]43)nn(-c3ccccc3)c21` [Compound I-541] are 1000 to 3000 nM, 1000 to 3000 nM and more than 1 µM.
In the same order, the values of `CCN1C(=O)[C@@H](NC(=O)c2cccc(C(F)(F)F)c2)[C@@H](C2CC2)c2c(C(=O)N3CC[C@H]3C#N)nn(-c3ccccc3)c21` [Compound I-561] are not above 200 nM, 1000 to 3000 nM and not above 0.1 µM.
